pIC50: −log10 of the molar value. Where two headings read alike, the source gives them in different places.
Key:
PIP4K2C [1] = target: T1, PIP4K2C (Homo sapiens, UniProt Q8TBX8); test: Enzyme Binding Assay (KINOMEscan): active site-directed competition binding to an immobilized ligand; set-up: purchased Eurofins DiscoverX, San Diego, CA 87-0007-1094; details: 11-point dose response, duplicate, top concentration 5 micromolar; read-out: Pip4k2c Kd: IC50
T1 sequence (Q8TBX8 1-421): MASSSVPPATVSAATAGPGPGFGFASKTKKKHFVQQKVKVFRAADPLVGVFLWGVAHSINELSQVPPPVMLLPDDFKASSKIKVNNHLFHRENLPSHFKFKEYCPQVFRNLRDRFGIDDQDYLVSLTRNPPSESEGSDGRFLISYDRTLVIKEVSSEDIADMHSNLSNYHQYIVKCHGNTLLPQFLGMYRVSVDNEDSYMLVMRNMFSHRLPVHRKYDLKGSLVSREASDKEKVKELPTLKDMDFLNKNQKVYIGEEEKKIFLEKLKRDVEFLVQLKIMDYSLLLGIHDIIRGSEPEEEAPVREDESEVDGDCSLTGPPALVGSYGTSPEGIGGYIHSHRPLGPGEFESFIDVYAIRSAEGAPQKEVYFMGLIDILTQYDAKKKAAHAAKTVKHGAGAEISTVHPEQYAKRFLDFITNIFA
Protocol: Example B-1: Enzyme Binding Assays (KINOMEscan)
PIP4K2C binding constants disclosed herein were determined using the proprietary Human PIP4K2C binding assay (Catalog number 87-0007-1094, Eurofins DiscoverX, San Diego, CA). This assay measures active site-directed competition binding to an immobilized ligand (see https://doi.org/10.1038/nbt1068, herein incorporated by reference in its entirety). Experiments were conducted using an 11-point dose response curve, in duplicate, with a top starting concentration of 5 micromolar; the Levenberg-Marquardt algorithm was used to fit a Hill equation to dose-response data to calculate IC50 values (see Table 5).

PIP4K2C [2] = target: T1, PIP4K2C; test: HiBiT PIP4K2C degradation assay in MOLT-4 cells (endogenous PIP4K2C C-terminally tagged with HiBiT); type: cell-based; set-up: untagged in primary human PBMCs and monocyte-derived dendritic cells; details: MOLT-4, top concentration 10 micromolar
Procedure, shortened: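 MOLT-4 knock-in line, HiBiT on PIP4K2C C-terminus; 22,500 cells/well; 10-pt 3-fold titration from 10 micromolar, n=2; 24 h or 6 h, 37 C, 5% CO2; Nano-Glo HiBiT lytic luminescence; DC50 via Hill equation.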

[3] = 6 hours of incubation time, rather than 24 hours, read-out: HiBIT-degradation MOLT4 PIP4k2C DC50 (6 hours, marked *)

Compound | pIC50 (PIP4K2C [1]) | DC50 (PIP4K2C [2]; [3]) | other results
NC(=O)[C@H]1CCC[C@@H](Nc2ncc(F)c(-c3cccc(-c4ccc(=O)[nH]c4)c3)n2)C1 (racemic) [Compound 201, cis-3-((5-fluoro-4-(3-(6-oxo-1,6-dihydropyridin-3-yl)phenyl)pyrimidin-2-yl)amino)cyclohexane-1-carboxamide] | > 6.30 | – | –
NC(=O)[C@H]1CCC[C@@H](Nc2ncc(Cl)c(-c3ccc(F)cc3)n2)C1 (relative stereo) [Compound 28, cis-3-((5-chloro-4-(4-fluorophenyl)pyrimidin-2-yl)amino)cyclohexane-1-carboxamide] | 5.30 to 6.00 | – | –
CC(=O)N[C@@H]1CCC[C@@H](Nc2ncc(Cl)c(-c3cccc(-c4ccccc4)c3)n2)C1 (relative stereo) [Compound 34, trans-N-(3-((4-([1,1′-biphenyl]-3-yl)-5-chloropyrimidin-2-yl)amino)cyclohexyl)acetamide] | > 6.30 | – | –
NC(=O)[C@@H]1CCC[C@H](Nc2ncc(F)c(-c3cccc(N4CCCC4)c3)n2)C1 (relative stereo) [Compound 36, cis-3-((5-fluoro-4-(3-(pyrrolidin-1-yl)phenyl)pyrimidin-2-yl)amino)cyclohexane-1-carboxamide] | > 6.30 | – | –
NC(=O)[C@@H]1CCC[C@H](Nc2ncc(F)c(-c3ccc(=O)n(-c4ccc(F)cc4)c3)n2)C1 (relative stereo) [Compound 41, cis-3-((5-fluoro-4-(1-(4-fluorophenyl)-6-oxo-1,6-dihydropyridin-3-yl)pyrimidin-2-yl)amino)cyclohexane-1-carboxamide] | > 6.30 | – | –
O=C1CCC(Nc2ccc(N3CCC(N4CCN(C(=O)O[C@H]5CC[C@H](Nc6ncc(F)c(-c7cccc(-n8ccccc8=O)c7)n6)CC5)CC4)CC3)c(F)c2)C(=O)N1 (stereo partly drawn) [Compound 698, trans-4-((5-fluoro-4-(3-(2-oxopyridin-1 (2H)-yl)phenyl)pyrimidin-2-yl)amino)cyclohexyl 4-(1-(4-((2,6-dioxopiperidin-3-yl)amino)-2-fluorophenyl)piperidin-4-yl)piperazine-1-carboxylate] | – | < 0.5 µM | –
O=C1CCC(Nc2ccc(N3CCN([C@H]4CC[C@H](OC(=O)N5CCC(Nc6ncc(F)c(-c7cccc(-n8ccccc8=O)c7)n6)CC5)CC4)CC3)c(F)c2)C(=O)N1 (stereo partly drawn) [Compound 699, trans-(1R,4r)-4-(4-(4-(((R)-2,6-dioxopiperidin-3-yl)amino)-2-fluorophenyl)piperazin-1-yl)cyclohexyl 4-((5-fluoro-4-(3-(2-oxopyridin-1 (2H)-yl)phenyl)pyrimidin-2-yl)amino)piperidine-1-carboxylate] | – | < 0.5 µM | –
O=C1CCC(Nc2ccc(N3CCC(N4CCC(NC(=O)[C@H]5CC[C@H](Nc6ncc(F)c(-c7cccc(N8CCCCC8)c7)n6)CC5)CC4)C(F)C3)c(F)c2)C(=O)N1 (stereo partly drawn) [Compound 700, trans-N-(1′-(4-((2,6-dioxopiperidin-3-yl)amino)-2-fluorophenyl)-3′-fluoro-[1,4′-bipiperidin]-4-yl)-4-((5-fluoro-4-(3-(piperidin-1-yl)phenyl)pyrimidin-2-yl)amino)cyclohexane-1-carboxamide] | – | < 0.5 µM | –
O=C1CCC(Nc2ccc(N3CCC(N4CCC(NC(=O)[C@H]5CC[C@H](Nc6ncc(F)c(-c7cccc(N8CCCCC8=O)c7)n6)CC5)CC4)C(F)C3)c(F)c2)C(=O)N1 (stereo partly drawn) [Compound 701, trans-N-(1′-(4-((2,6-dioxopiperidin-3-yl)amino)-2-fluorophenyl)-3′-fluoro-[1,4′-bipiperidin]-4-yl)-4-((5-fluoro-4-(3-(2-oxopiperidin-1-yl)phenyl)pyrimidin-2-yl)amino)cyclohexane-1-carboxamide] | – | < 0.5 µM | –
O=C1CCC(Nc2ccc(N3CCC(N4CCC(C(=O)NC5CCC(Nc6ncc(F)c(-c7cccc(-c8ccc[nH]c8=O)c7)n6)CC5)CC4)CC3)c(F)c2)C(=O)N1 [Compound 702, trans-1′-(4-(((S)-2,6-dioxopiperidin-3-yl)amino)-2-fluorophenyl)-N-((1r,4r)-4-((5-fluoro-4-(3-(2-oxo-1,2-dihydropyridin-3-yl)phenyl)pyrimidin-2-yl)amino)cyclohexyl)-[1,4′-bipiperidine]-4-carboxamide] | – | < 0.5 µM | –
O=C1CCC(N2Cc3cc(C4CCN(C5CCCN(CC(=O)N6CCC(Nc7ncc(Cl)c(-c8cccc(-c9ccc(F)cc9)c8)n7)CC6)C5)CC4)ccc3C2=O)C(=O)N1 (stereo not drawn) [Compound 705, 3-(5-(1′-(2-(4-((5-chloro-4-(4′-fluoro-[1,1′-biphenyl]-3-yl)pyrimidin-2-yl)amino)piperidin-1-yl)-2-oxoethyl)-[1,3′-bipiperidin]-4-yl)-1-oxoisoindolin-2-yl)piperidine-2,6-dione] | – | – | DC50 (PIP4K2C [2]; 24 hours incubation, read-out: HiBIT-degradation MOLT4 PIP4k2C 24 hours DC50): < 0.5 µM
O=C1CC[C@@H](Nc2ccc(C3CCN([C@H]4CC[C@H](C(=O)N[C@H]5CC[C@H](Nc6ncc(F)c(-c7cccc(-n8ccccc8=O)c7)n6)CC5)CC4)CC3)c(F)c2)C(=O)N1 [Compound 706, (1R,4R)-4-(4-(4-(((R)-2,6-dioxopiperidin-3-yl)amino)-2-fluorophenyl)piperidin-1-yl)-N-((1r,4R)-4-((5-fluoro-4-(3-(2-oxopyridin-1(2H)-yl)phenyl)pyrimidin-2-yl)amino)cyclohexyl)cyclohexane-1-carboxamide] | – | < 0.5 µM | –
trans-(1r,4R)-4-(4-(4-((2,6-dioxopiperidin-3-yl)amino)-2-fluorophenyl)piperidin-1-yl)-N-((1r,4R)-4-((5-fluoro-4-(6-(2-oxo-1,3-oxazinan-3-yl)pyridin-2-yl)pyrimidin-2-yl)amino)cyclohexyl)cyclohexane-1-carboxamide [Compound 539] | – | > 5 µM | –

More lines, main results first:

pIC50 (PIP4K2C [1]) | DC50 (PIP4K2C [2]; [3]) | Compound | other results
> 6.30 | – | NC(=O)[C@@H]1CCC[C@H](Nc2ncc(Cl)c(-c3cccc(-n4ccc(F)cc4=O)c3)n2)C1 (racemic) [Compound 168, rac-(1R,3S)-3-((5-chloro-4-(3-(4-fluoro-2-oxopyridin-1 (2H)-yl)phenyl)pyrimidin-2-yl)amino)cyclohexane-1-carboxamide] | –
> 6.30 | – | CC(=O)N[C@H]1CCC[C@@H](Nc2ncc(Cl)c(-c3cccc(-c4ccccc4)c3)n2)C1 (relative stereo) [Compound 33, cis-N-(3-((4-([1,1′-biphenyl]-3-yl)-5-chloropyrimidin-2-yl)amino)cyclohexyl)acetamide] | –
> 6.30 | – | NC(=O)[C@@H]1CCC[C@H](Nc2ncc(F)c(-c3cccc(C4CCC4)c3)n2)C1 (relative stereo) [Compound 38, cis-3-((4-(3-cyclobutylphenyl)-5-fluoropyrimidin-2-yl)amino)cyclohexane-1-carboxamide] | –
– | < 0.5 µM | O=C1CCC(Nc2ccc(N3CCN(C[C@H]4CC[C@H](CC(=O)N[C@H]5CC[C@H](Nc6ncc(F)c(-c7cccc(-c8ccc[nH]c8=O)c7)n6)CC5)CC4)CC3)c(F)c2)C(=O)N1 (stereo partly drawn) [Compound 703, trans-2-((1r,4R)-4-((4-(4-((2,6-dioxopiperidin-3-yl)amino)-2-fluorophenyl)piperazin-1-yl)methyl)cyclohexyl)-N-((1r,4R)-4-((5-fluoro-4-(3-(2-oxo-1,2-dihydropyridin-3-yl)phenyl)pyrimidin-2-yl)amino)cyclohexyl)acetamide] | –
– | < 0.5 µM | O=C1CCC(Nc2ccc(N3CCC(CN4CCC(CC(=O)N[C@H]5CC[C@H](Nc6ncc(F)c(-c7cccc(-n8ccccc8=O)c7)n6)CC5)CC4)CC3)c(F)c2)C(=O)N1 (stereo partly drawn) [Compound 704, trans-2-(1-((1-(4-((2,6-dioxopiperidin-3-yl)amino)-2-fluorophenyl)piperidin-4-yl)methyl)piperidin-4-yl)-N-(4-((5-fluoro-4-(3-(2-oxopyridin-1 (2H)-yl)phenyl)pyrimidin-2-yl)amino)cyclohexyl)acetamide] | –

Source: patent US20260355196A1, “INHIBITORS AND DEGRADERS OF PIP4K PROTEIN” (Larkspur Biosciences, Inc., priority 2023, published 2026)
